Columns and labels:
[1] = tested on: leukotriene biosynthesis; assay: Inhibition of leukotriene biosynthesis in vivo after oral administration, rat peritoneal anaphylaxis model; details: 100 μmol/kg oral (gavage), 1 h before antigen challenge, read-out: % Inhibition of Leukotrienes at 100 μmol/kg oral dose
[2] = tested on: LTB4 biosynthesis in human whole blood; assay: Inhibition of calcium ionophore-induced LTB4 biosynthesis in human whole blood; format: cell-based; details: for IC50: A23187 50 μM, 15 min preincubation, read-out: Inhibition of Leukotriene Biosynthesis IC50
Description: Inhibition of leukotriene biosynthesis was evaluated in an assay, involving calcium ionophore-induced LTB4 biosynthesis expressed by human whole blood. Heparinized (20 U/mL) human blood (0.3 mL) was preincubated with test compound or vehicle for 15 min. at 37° C. Eicosanoid biosynthesis was initiated by adding calcium ionophore (A23187) in DMSO to a final concentration of 50 μM and terminated after 30 min. by rapid cooling of the blood in an ice bath and centrifuging at 3° C. for 10 min at 2500×g. The plasma was mixed with 4 volumes of methanol and allowed to stand for at least 30 min. at 3° C. prior to centrifuging at 1800×g for 10 min. The level of LTB4 in aliquots of the methanol-plasma extract was analyzed by radio-immunoassay or enyme-immunoassay techniques.

| IC50 [2] [nM] | Structure (SMILES) | inhibition in vivo at 100 µmol/kg [1] [%] | inhibition at 0.2 µM ([2]; 0.2 μM, read-out: Inhibition of Leukotriene Biosynthesis (% at 0.2 μM)) [%] |
| --- | --- | --- | --- |
|  | NC(=O)N(O)C[C@@H]1C[C@H]1c1cccc(Oc2cccs2)c1 (relative stereo) [Example 178, N-(1-trans-(2-(3-(2-thienyloxy)phenyl)cyclopropyl)methyl)-N-hydroxyurea] | 60 | 64 |
| 680 | CC([C@@H]1C[C@H]1c1ccsc1)N(O)C(N)=O (stereo partly drawn) [Example 189, N-(1-trans-(2-(3-thienyl)cyclopropyl)ethyl)-N-hydroxyurea] | 73 |  |
| 230 | NC(=O)N(O)C[C@@H]1C[C@H]1c1ccoc1 (relative stereo) [Example 193, N-(1-trans-(2-(3-furanyl)cyclopropyl)methyl)-N-hydroxyurea] | 93 |  |
| 170 | CCc1ccc(Oc2cccc([C@@H]3C[C@H]3CN(O)C(N)=O)c2)cc1 (relative stereo) [Example 176, N-(1-trans-(2-(3-(4-ethylphenoxy)phenyl)cyclopropyl)methyl)-N-hydroxyurea] | 87 |  |
| 370 | NC(=O)N(O)C[C@@H]1C[C@H]1c1cccs1 (relative stereo) [Example 194, N-(1-trans-(2-(2-thienyl)cyclopropyl)methyl)-N-hydroxyurea] | 97 |  |
| 170 | CCCc1ccc(Oc2cccc([C@@H]3C[C@H]3CN(O)C(N)=O)c2)cc1 (relative stereo) [Example 169, N-(1-trans-(2-(3-(4-propylphenoxy)phenyl)cyclopropyl)methyl)-N-hydroxyurea] | 98 |  |

Source: patent US5120752A, “Cyclopropyl derivative lipoxygenase inhibitors” (Abbott Laboratories, priority 1990, dated 1992)
